Tests used:
[1] = test system: rats, dogs, cats and rabbits; conditions: prior art; cited from earlier work
skin = assay: Handling hazard observed in synthesis; conditions: observation in synthesis
[2] = test system: genetically hypertensive rats; assay: Blood pressure change after oral dosing (intra-arterial cannula and transducer); format: in vivo, rat; conditions: P.O. 50 mg./kg.; for change in vivo at 50 mg/kg: Rattus norvegicus, po, + increase, - decrease in b.p., tested as hydrochloride salts
Experimental: The blood pressure of unanesthetized rats and dogs was measured directly by means of a transducer attached to an intra-arterial cannula and in anesthetized dogs by a mercury manometer attached to a carotid cannula.
The compounds of the instant invention were tested as the hydrochloride salts by the above method in genetically hypertensive rats in doses of 50 mg./kg. orally.

c1ccc2c(c1)CN1CCNC1=N2
antihypertensive activity [1]: potent antihypertensive activity

Cc1cccc([N+](=O)[O-])c1CCl [2-Methyl-6-nitrobenzyl chloride]
lachrymator and skin irritant (skin): strong lachrymator and skin irritant

O=C1CCN2Cc3cc(Br)ccc3N=C2N1 [Compound 21, 8-Bromo-6-[H]-1,2,3,4-tetrahydropyrimido[2,1-b]quinazolin-2-one]
Blood Pressure % Change Rats column: toxicity in words [2]: Toxic

COc1cccc2c1CN1CCC(=O)NC1=N2 [Compound 25]
change in vivo at 50 mg/kg [2]: 5 ± 3%

COc1ccc2c(c1)CN1CCC(=O)NC1=N2 [Compound 26]
change in vivo at 50 mg/kg [2]: 19 ± 6%

COc1cccc2c1N=C1NC(=O)CCN1C2 [Compound 27]
change in vivo at 50 mg/kg [2]: -1 ± 4%

COc1cc2c(cc1OC)N=C1NC(=O)CCN1C2 [Compound 28]
change in vivo at 50 mg/kg [2]: -7 ± 2%
